These results are taken from US20220017566A1, “TERPINOID DERIVATIVES AND USES THEREOF” (SICHUAN HAISCO PHARMACEUTICAL CO., LTD., priority 2018, published 2022).

Like-named read-outs stand apart in the source and are kept apart here.

The test system of series [1] is IFNγ-induced NO production in Raw 264.7 cells. In words: Nitric oxide assay: suppression of IFNγ-induced NO production (Griess nitrite, adjusted to live cell numbers). The format is cell-based. The following applies: Mus musculus, RAW264.7, 2 h pretreatment, IFNγ 10 ng/ml for 24 hours. The method, then: Raw 264.7 cells were seeded in 96-well plates at a density of 30, 000 cells per well in DMEM+10% FBS and incubated overnight. The next day, cell media was replaced by DMEM+2% FBS. Cells were pretreated with DMSO or test compounds (top dose 100 nM, 1:4 serial dilution, 10-point) for 2 hours and then treated with recombinant mouse IFNγ (R&D, Cat# 485-MI-100) at a final concentration of 10 ng/ml for 24 hours. Nitrite levels were measured in culture media as a surrogate for nitric oxide using the Griess Reagent System (Promega, Cat# G2930). Cell viability was determined using CellTiter Glo reagents (Promega, Cat#G7572). The nitrite levels were adjusted to live cell numbers and inhibition percentage was calculated. The inhibition percentage was then plotted against compound concentration, and IC50 values were calculated using four-parameter algorithm in Graphpad Prism.

A short description of series [2]: Pharmacokinetic studies in Sprague Dawley rats (oral gavage and IV). The format is in vivo. The following applies: rat, male SD rats, plasma; for AUC(0-t): read-out: AUC0-24 h; for bioavailability: oral 5 mg/kg vs IV 1 mg/kg, read-out: Bioavailibility F %. As for the experimental part: The pharmacokinetics of test compounds was evaluated in male SD rats when administered via oral gavage and IV injection. For oral dosing, compound was formulated in 0.5% methylcellulose and administered at doses of 5 mg/kg (3 rats per dose level) and volume of 10 mL/kg. For IV dosing, compound was formulated in 5% DMSO/5% Solutol/90% saline and administered to 3 rats at a dose of 1 mg/kg and a volume of 5 mL/kg. The rats were fasted overnight before administration. Plasma samples were collected predose and at 0.5, 1, 3, 6, 9, 12, and 24 hours postdose. The samples were analyzed by LC/MS/MS and the concentration of test compound at each timepoint was determined by linear regression. Pharmacokinetic parameters were calculated from the plasma concentrations using Pheonix WinNonlin.

Series [3] deals with T1, CYP2C19 (Homo sapiens, UniProt P33261).
T1 construct: studied in liver microsomes of CD-1 mouse, Sprague Dawley rat, Beagle dog, cynomolgus monkey, and human; from tissue; host or cells: liver microsomes
T1 sequence (P33261 whole entry): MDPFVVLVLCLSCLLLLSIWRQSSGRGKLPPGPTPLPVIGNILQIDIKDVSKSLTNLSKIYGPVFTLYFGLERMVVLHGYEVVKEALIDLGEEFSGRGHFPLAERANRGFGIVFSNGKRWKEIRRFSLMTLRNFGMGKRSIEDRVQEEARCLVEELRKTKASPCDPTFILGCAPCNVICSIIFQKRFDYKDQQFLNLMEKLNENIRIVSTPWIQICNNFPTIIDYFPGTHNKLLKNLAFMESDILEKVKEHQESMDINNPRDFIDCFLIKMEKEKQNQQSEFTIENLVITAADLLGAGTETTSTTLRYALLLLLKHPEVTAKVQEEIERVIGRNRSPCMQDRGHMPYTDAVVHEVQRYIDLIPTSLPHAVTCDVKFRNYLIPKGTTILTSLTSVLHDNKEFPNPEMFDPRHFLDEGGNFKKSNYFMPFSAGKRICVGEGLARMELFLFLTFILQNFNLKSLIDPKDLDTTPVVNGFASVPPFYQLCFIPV
The experiment in a line: CYP450 enzyme inhibition in liver microsomes (cocktail probe incubation). The format is in vitro ADME. The following applies: species not given, 0.05-50 μM tested. As for the experimental part:
(§1) The inhibition potential of test compounds towards major drug metabolizing CYP450 enzymes was studied in liver microsomes of CD-1 mouse, Sprague Dawley rat, Beagle dog, cynomolgus monkey, and human. The inhibition of CYP1A2, CYP2C9, CYP2C19, CYP2D6, and CYP3A4 was assessed using CYP450 specific probe reactions in a cocktail incubation. Seven concentrations of test compounds (0.05, 0.15, 0.5, 1.5, 5, 15, and 50 μM) were evaluated. In addition, known inhibitors for each probe reaction were included as positive controls and incubated at a single concentration above their respective IC50.
Background: Liver microsomes are a subcellular fraction often used to study metabolism.

For series [4], the target named is T2, CYP2C9 (Homo sapiens, UniProt P11712).
T2 construct: studied in liver microsomes of CD-1 mouse, Sprague Dawley rat, Beagle dog, cynomolgus monkey, and human; from tissue; host or cells: liver microsomes
T2 sequence (P11712 whole entry): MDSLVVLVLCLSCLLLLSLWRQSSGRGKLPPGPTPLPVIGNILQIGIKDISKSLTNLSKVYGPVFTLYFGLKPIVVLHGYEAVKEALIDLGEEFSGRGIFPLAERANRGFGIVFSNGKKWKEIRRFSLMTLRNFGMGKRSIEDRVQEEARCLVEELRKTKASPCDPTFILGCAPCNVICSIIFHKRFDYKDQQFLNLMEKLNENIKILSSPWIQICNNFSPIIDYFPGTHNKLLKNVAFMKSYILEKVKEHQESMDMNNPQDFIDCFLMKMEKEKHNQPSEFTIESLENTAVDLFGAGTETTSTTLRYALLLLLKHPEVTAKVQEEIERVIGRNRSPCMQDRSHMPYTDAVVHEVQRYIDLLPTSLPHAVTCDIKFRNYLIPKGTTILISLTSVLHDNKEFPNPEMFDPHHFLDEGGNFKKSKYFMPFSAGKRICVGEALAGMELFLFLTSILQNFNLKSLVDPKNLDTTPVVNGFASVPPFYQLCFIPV
The series is described as above. The format is in vitro ADME. The following applies: species not given, 0.05-50 μM tested. The method, then: as §1

The target in series [5] is T3, CYP1A2 (Homo sapiens, UniProt P05177).
T3 construct: studied in liver microsomes of CD-1 mouse, Sprague Dawley rat, Beagle dog, cynomolgus monkey, and human; from tissue; host or cells: liver microsomes
T3 sequence (P05177 1-516): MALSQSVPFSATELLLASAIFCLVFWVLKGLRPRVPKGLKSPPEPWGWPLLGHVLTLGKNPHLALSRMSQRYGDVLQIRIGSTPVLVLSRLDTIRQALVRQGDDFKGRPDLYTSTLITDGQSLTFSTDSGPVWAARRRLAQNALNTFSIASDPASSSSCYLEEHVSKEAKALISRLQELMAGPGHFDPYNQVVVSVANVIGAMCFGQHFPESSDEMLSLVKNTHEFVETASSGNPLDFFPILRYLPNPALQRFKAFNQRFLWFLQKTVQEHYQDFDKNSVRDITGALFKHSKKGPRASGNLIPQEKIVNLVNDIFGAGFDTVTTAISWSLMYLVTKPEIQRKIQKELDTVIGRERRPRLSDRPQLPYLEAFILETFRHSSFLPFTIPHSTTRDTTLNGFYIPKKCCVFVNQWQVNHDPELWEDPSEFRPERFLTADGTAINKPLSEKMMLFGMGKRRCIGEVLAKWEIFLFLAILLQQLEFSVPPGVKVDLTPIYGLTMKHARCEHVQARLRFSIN
The series is described as above. The following applies: species not given, 0.05-50 μM tested. The format is in vitro ADME. As for the experimental part: as §1

In series [6] the target is T4, CYP3A4 (Homo sapiens, UniProt P08684).
T4 construct: studied in liver microsomes of CD-1 mouse, Sprague Dawley rat, Beagle dog, cynomolgus monkey, and human; from tissue; host or cells: liver microsomes
T4 sequence (P08684 whole entry): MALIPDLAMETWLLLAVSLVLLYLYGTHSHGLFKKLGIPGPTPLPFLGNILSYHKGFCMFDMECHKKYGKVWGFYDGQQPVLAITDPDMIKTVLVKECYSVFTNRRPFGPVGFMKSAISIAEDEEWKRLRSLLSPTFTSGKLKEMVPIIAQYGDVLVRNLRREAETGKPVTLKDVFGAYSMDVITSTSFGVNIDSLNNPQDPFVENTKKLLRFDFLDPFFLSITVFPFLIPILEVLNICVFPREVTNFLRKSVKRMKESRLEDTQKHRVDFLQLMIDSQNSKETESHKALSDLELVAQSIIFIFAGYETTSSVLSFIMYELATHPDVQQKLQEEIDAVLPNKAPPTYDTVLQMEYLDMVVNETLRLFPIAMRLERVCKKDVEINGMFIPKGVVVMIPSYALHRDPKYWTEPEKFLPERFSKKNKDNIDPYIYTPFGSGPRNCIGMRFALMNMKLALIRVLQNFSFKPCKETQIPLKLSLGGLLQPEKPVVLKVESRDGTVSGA
The series is described as above. The format is in vitro ADME. The following applies: species not given, 0.05-50 μM tested. As for the experimental part: as §1

For series [7], the target named is T5, CYP2D6 (Homo sapiens, UniProt P10635).
T5 construct: studied in liver microsomes of CD-1 mouse, Sprague Dawley rat, Beagle dog, cynomolgus monkey, and human; from tissue; host or cells: liver microsomes
T5 sequence (P10635 whole entry): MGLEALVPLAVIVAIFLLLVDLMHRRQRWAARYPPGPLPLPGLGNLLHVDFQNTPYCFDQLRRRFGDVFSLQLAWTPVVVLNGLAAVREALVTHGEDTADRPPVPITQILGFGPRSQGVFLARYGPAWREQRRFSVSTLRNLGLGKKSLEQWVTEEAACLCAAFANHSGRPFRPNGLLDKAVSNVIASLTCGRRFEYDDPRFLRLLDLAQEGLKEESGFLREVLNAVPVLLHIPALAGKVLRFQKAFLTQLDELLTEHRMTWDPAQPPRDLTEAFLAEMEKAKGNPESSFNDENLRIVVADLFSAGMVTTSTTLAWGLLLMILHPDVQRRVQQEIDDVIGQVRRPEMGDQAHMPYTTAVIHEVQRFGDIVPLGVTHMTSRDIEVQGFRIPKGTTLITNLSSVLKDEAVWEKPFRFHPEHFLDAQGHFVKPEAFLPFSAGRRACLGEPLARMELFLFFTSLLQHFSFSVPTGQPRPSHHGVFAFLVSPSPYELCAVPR
Described as above. The format is in vitro ADME. The conditions noted are these: species not given, 0.05-50 μM tested. As for the experimental part:
as §1

Consider `CC1(C)C(=O)C(C#N)=C[C@]2(C)C3=CC(=O)[C@@H]4[C@@H]5C[C@@](C)(N6CCCC6=O)CC[C@]5(C)CC[C@@]4(C)[C@]3(C)CC[C@@H]12` [Example 12, (4aR,6aS,6bR,8aS,11S,12aS,12bR,14bS)-4,4,6a,6b,8a,11,14b-heptamethyl-3,13-dioxo-11-(2-oxopyrrolidin-1-yl)-3,4,4a,5,6,6a,6b,7,8,8a,9,10,11,12,12a,12b,13,14b-octadecahydropicene-2-carbonitrile], for which the IC50 (as a rule, the concentration that gives 50% inhibition) in series [1] was below 10 nM; in series [3] it was 9.7 µM; in series [4], 2700 nM; in series [5], above 50 µM; in series [6] it was 2800 nM; in series [7], above 50 µM. In series [2] (IV (1 mg/kg)), this molecule gave a C0 of 359 ng/mL. Besides, the clearance in series [2] (IV (1 mg/kg)) was 85.7 mL/min/kg. The half-life – broadly, how long it takes for the measured level to halve – is 102 min in series [2] (IV (1 mg/kg)) and 246 min in series [2] (Oral (5 mg/kg)). Further, the AUC(0-t) in series [2] (IV (1 mg/kg)) turned out to be 191 ng·h/mL; in series [2] (Oral (5 mg/kg)) it was 94 ng·h/mL. For the same molecule, the highest concentration (Cmax) (usually the peak of the concentration-time curve) in series [2] (Oral (5 mg/kg)) came to 29 ng/mL. For the same molecule, the bioavailability in series [2] amounted to 9.9%.
With `CNC(=O)c1nnc([C@@]2(C)CC[C@]3(C)CC[C@]4(C)[C@H](C(=O)C=C5[C@@]6(C)C=C(C#N)C(=O)C(C)(C)[C@@H]6CC[C@]54C)[C@@H]3C2)o1` [Example 24, 5-((2S,4aS,6aR,6bS,8aR,12aS,14aR,14bS)-11-cyano-2,4a,6a,6b,9,9,12a-heptamethyl-10,14-dioxo-1,2,3,4,4a,5,6,6a,6b,7,8,8a,9,10,12a,14,14a,14b-octadecahydropicen-2-yl)-N-methyl-1,3,4-oxadiazole-2-carboxamide], the IC50 in series [1] was below 10 nM; in series [3], 2.8 µM; in series [4], 600 nM; in series [5], above 50 µM; in series [6], 500 nM; in series [7], 4 µM.
Take `CC1(C)C(=O)C(C#N)=C[C@]2(C)C3=CC(=O)[C@@H]4[C@@H]5C[C@@](C)(N6CCOCC6)CC[C@]5(C)CC[C@@]4(C)[C@]3(C)CC[C@@H]12` [Example 11, (4aR,6aS,6bR,8aS,11S,12aS,12bR,14bS)-4,4,6a,6b,8a,11,14b-heptamethyl-11-morpholino-3,13-dioxo-3,4,4a,5,6,6a,6b,7,8,8a,9,10,11,12,12a,12b,13,14b-octadecahydropicene-2-carbonitrile]: the IC50 was below 10 nM in series [1]; 14.6 µM in series [3]; 2200 nM in series [4]; above 50 µM in series [5]; 500 nM in series [6]; above 50 µM in series [7].
As for `CC1(C)C(=O)C(C#N)=C[C@]2(C)C3=CC(=O)[C@@H]4[C@@H]5C[C@@](C)(N6C(=O)CCC6=O)CC[C@]5(C)CC[C@@]4(C)[C@]3(C)CC[C@@H]12` [Example 18, (4aR,6aS,6bR,8aS,11S,12aS,12bR,14bS)-11-(2,5-dioxopyrrolidin-1-yl)-4,4,6a,6b,8a,11,14b-heptamethyl-3,13-dioxo-3,4,4a,5,6,6a,6b,7,8,8a,9,10,11,12,12a,12b,13,14b-octadecahydropicene-2-carbonitrile], the IC50 is below 10 nM in series [1]; 19.6 µM in series [3]; 4700 nM in series [4]; above 50 µM in series [5]; 2100 nM in series [6]; above 50 µM in series [7]. This molecule showed a C0 in series [2] (IV (1 mg/kg)) of 472 ng/mL. In series [2] (IV (1 mg/kg)), this molecule came in with a clearance of 62.5 mL/min/kg. Moreover, the half-life in series [2] (IV (1 mg/kg)) was 84 min; in series [2] (Oral (5 mg/kg)), 138 min. For the same molecule, the AUC(0-t) in series [2] (IV (1 mg/kg)) stood at 267 ng·h/mL; in series [2] (Oral (5 mg/kg)) it was 181 ng·h/mL. This molecule came in with a Cmax in series [2] (Oral (5 mg/kg)) of 50 ng/mL. Also, the bioavailability in series [2] worked out at 13.6%.
Consider `CC1(C)C(=O)C(C#N)=C[C@]2(C)C3=CC(=O)[C@@H]4[C@@H]5C[C@@](C)(N6CCOC6=O)CC[C@]5(C)CC[C@@]4(C)[C@]3(C)CC[C@@H]12` [Example 13, (4aR,6aS,6bR,8aS,11S,12aS,12bR,14bS)-4,4,6a,6b,8a,11,14b-heptamethyl-3,13-dioxo-11-(2-oxooxazolidin-3-yl)-3,4,4a,5,6,6a,6b,7,8,8a,9,10,11,12,12a,12b,13,14b-octadecahydropicene-2-carbonitrile], for which the IC50 in series [1] is below 10 nM; in series [3] it was 11.7 µM; in series [4], 1900 nM; in series [5], above 50 µM; in series [6] it was 1900 nM; in series [7] it was above 50 µM. Besides, the C0 in series [2] (IV (1 mg/kg)) amounted to 355 ng/mL. This molecule registered a clearance in series [2] (IV (1 mg/kg)) of 78.9 mL/min/kg. The half-life in series [2] (IV (1 mg/kg)) is 132 min; in series [2] (Oral (5 mg/kg)) it was 126 min. Further, the AUC(0-t) in series [2] (IV (1 mg/kg)) came out at 206 ng·h/mL; in series [2] (Oral (5 mg/kg)) it was 197 ng·h/mL. In series [2] (Oral (5 mg/kg)), this molecule yielded a Cmax of 45 ng/mL. In addition, in series [2], the bioavailability was 19.2%.
Turning to `Cc1cnc([C@@]2(C)CC[C@]3(C)CC[C@]4(C)[C@H](C(=O)C=C5[C@@]6(C)C=C(C#N)C(=O)C(C)(C)[C@@H]6CC[C@]54C)[C@@H]3C2)o1` [Example 7, (4aR,6aS,6bR,8aS,11S,12aS,12bR,14bS)-4,4,6a,6b,8a,11,14b-heptamethyl-11-(5-methyloxazol-2-yl)-3,13-dioxo-3,4,4a,5,6,6a,6b,7,8,8a,9,10,11,12,12a,12b,13,14b-octadecahydropicene-2-carbonitrile], the half-inhibitory concentration (IC50) was below 10 nM in series [1]; 9.4 µM in series [3]; 2000 nM in series [4]; above 50 µM in series [5]; 800 nM in series [6]; 10.1 µM in series [7].
`C[C@H](O)c1nnc([C@@]2(C)CC[C@]3(C)CC[C@]4(C)[C@H](C(=O)C=C5[C@@]6(C)C=C(C#N)C(=O)C(C)(C)[C@@H]6CC[C@]54C)[C@@H]3C2)o1` [Example 23, (4aR,6aS,6bR,8aS,11S,12aS,12bR,14bS)-11-(5-((S)-1-hydroxyethyl)-1,3,4-oxadiazol-2-yl)-4,4,6a,6b,8a,11,14b-heptamethyl-3,13-dioxo-3,4,4a,5,6,6a,6b,7,8,8a,9,10,11,12,12a,12b,13,14b-octadecahydropicene-2-carbonitrile]: the IC50 is 10 to 100 nM in series [1]; 11.8 µM in series [3]; 1500 nM in series [4]; above 50 µM in series [5]; 900 nM in series [6]; 15.8 µM in series [7].
Consider `CC1(C)C(=O)C(C#N)=C[C@]2(C)C3=CC(=O)[C@@H]4[C@@H]5C[C@@](C)(c6nnc(C(F)(F)F)o6)CC[C@]5(C)CC[C@@]4(C)[C@]3(C)CC[C@@H]12` [Example 10, (4aR,6aS,6bR,8aS,11S,12aS,12bR,14bS)-4,4,6a,6b,8a,11,14b-heptamethyl-3,13-dioxo-11-(5-(trifluoromethyl)-1,3,4-oxadiazol-2-yl)-3,4,4a,5,6,6a,6b,7,8,8a,9,10,11,12,12a,12b,13,14b-octadecahydropicene-2-carbonitrile], for which the IC50 was below 10 nM in series [1]; 27.5 µM in series [3]; 1800 nM in series [4]; above 50 µM in series [5]; 1300 nM in series [6]; above 50 µM in series [7].
